Molecules are shown by their SMILES. pKi: −log10 of the molar value.

Here are results for nine compounds from ChEMBL document CHEMBL1134436, “Significance of hydrogen bonding at the S(1)' subsite of calpain I” (Bioorg Med Chem Lett, 2001).

The assay concerns the target T1, Calpain-1 catalytic subunit (Sus scrofa, UniProt P35750).
T1 sequence (P35750 whole entry): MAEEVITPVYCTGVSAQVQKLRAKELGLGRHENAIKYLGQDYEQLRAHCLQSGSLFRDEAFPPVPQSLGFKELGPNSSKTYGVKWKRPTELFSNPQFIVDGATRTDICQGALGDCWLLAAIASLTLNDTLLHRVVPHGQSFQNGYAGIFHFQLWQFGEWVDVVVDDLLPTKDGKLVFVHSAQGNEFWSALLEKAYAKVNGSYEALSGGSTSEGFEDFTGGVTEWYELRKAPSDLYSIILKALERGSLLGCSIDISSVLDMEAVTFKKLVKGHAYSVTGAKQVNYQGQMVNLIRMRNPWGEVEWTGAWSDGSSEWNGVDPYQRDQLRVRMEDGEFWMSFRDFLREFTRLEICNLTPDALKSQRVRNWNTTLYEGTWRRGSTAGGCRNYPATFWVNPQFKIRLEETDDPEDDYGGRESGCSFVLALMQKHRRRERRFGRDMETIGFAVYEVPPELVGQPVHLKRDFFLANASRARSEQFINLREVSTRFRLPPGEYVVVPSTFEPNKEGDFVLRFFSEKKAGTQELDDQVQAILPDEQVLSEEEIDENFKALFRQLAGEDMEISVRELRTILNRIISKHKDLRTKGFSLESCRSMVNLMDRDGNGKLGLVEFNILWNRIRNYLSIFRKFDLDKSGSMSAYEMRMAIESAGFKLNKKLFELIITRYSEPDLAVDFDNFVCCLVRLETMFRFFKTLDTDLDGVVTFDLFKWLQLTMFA
Kind of assay: Binding affinity was evaluated against porcine erythrocyte Calpain 1 at the S1 subsite of the enzyme.
In turn, `CC(C)C[C@H](NC(=O)OCc1ccccc1)C(=O)N[C@@H](Cc1ccccc1)C(=O)C(=O)NOCc1ccccc1` had a pKi of 7.35.
The compound `CC(C)C[C@H](NC(=O)OCc1ccccc1)C(=O)N[C@@H](Cc1ccccc1)C(=O)C(=O)N(C)OCc1ccccc1` had a pKi of 6.17. This pKi is 1.18 log units lower than that of the compound before.
`CCN(CC)C(=O)C(=O)[C@H](Cc1ccccc1)NC(=O)[C@H](CC(C)C)NC(=O)OCc1ccccc1` showed a pKi of 4.12.
The compound `CCN(OCc1ccccc1)C(=O)C(=O)[C@H](Cc1ccccc1)NC(=O)[C@H](CC(C)C)NC(=O)OCc1ccccc1` had a pKi of 4.55.
Compound `CCONC(=O)C(=O)[C@H](Cc1ccccc1)NC(=O)[C@H](CC(C)C)NC(=O)OCc1ccccc1` showed a pKi of 7.21.
With `CC(C)C[C@H](NC(=O)OCc1ccccc1)C(=O)N[C@@H](Cc1ccccc1)C(=O)C(=O)NCCc1ccccc1` the figure was 7.14.
In the case of `CCCNC(=O)C(=O)[C@H](Cc1ccccc1)NC(=O)[C@H](CC(C)C)NC(=O)OCc1ccccc1`, the pKi is 6.97.
Regarding `CCON(C)C(=O)C(=O)[C@H](Cc1ccccc1)NC(=O)[C@H](CC(C)C)NC(=O)OCc1ccccc1`, the pKi was 6.12.
The value for `CCNC(=O)C(=O)[C@H](Cc1ccccc1)NC(=O)[C@H](CC(C)C)NC(=O)OCc1ccccc1` was 6.70.

The pKi is the Ki on a negative log10 scale, so that one unit is a factor of ten.
